According to ChEMBL document CHEMBL1143732, “3-Hydroxy-1,5-dihydro-pyrrol-2-one derivatives as advanced inhibitors of HIV integrase” (Bioorg Med Chem, 2007):

biological target: not listed separately; experiment: Inhibition of HIV integrase by MWPA-Mn enzymatic assay; set-up: species or system Human immunodeficiency virus; conditions: not given

| SMILES | IC50 |
| --- | --- |
| CNC(=O)/C(O)=C/c1cc(CCc2ccccc2)ncn1 | 39 µM |
| O=C(/C(O)=C/c1cc(CCc2ccccc2)ncn1)N1CCOCC1 | 262 µM |
| CN1CC(c2cc(CCc3ccc(F)cc3)ncn2)=C(O)C1=O | 0.32 µM |
| CN1CC(c2cc(OCc3ccc(F)cc3)ncn2)=C(O)C1=O | 0.3 µM |
| O=C(O)/C(O)=C/c1cc(CCc2ccccc2)ncn1 | 0.037 µM |
| O=C(O)/C(O)=C/c1ccc(Oc2ccc(F)cc2)cn1 | 0.11 µM |
| CN1CC(c2ccc(OCc3ccc(F)cc3)cn2)=C(O)C1=O | < 0.021 µM |

The next lines start with the values.

| IC50 | SMILES |
| --- | --- |
| 71 µM | NC(=O)/C(O)=C/c1cc(CCc2ccccc2)ncn1 |
| 0.066 µM | O=C(O)/C(O)=C/c1ccc(OCc2ccc(F)cc2)cn1 |
| 0.059 µM | O=C(O)/C(O)=C/c1cc(CCc2ccc(F)cc2)ccn1 |
| 0.095 µM | O=C(O)/C(O)=C/c1ccc(Cc2ccc(F)cc2)cn1 |
| 0.014 µM | O=C(O)/C(O)=C/c1cc(OCc2ccc(F)cc2)ccn1 |
| < 0.021 µM | CN1CC(c2ccc(Oc3ccc(F)cc3)cn2)=C(O)C1=O |
| < 0.021 µM | CN1CC(c2ccc(Cc3ccc(F)cc3)cn2)=C(O)C1=O |

test system: Human immunodeficiency virus; experiment: Antiviral activity against HIV; assay type: functional, organism-based; conditions: Human immunodeficiency virus 1

| SMILES | EC50 |
| --- | --- |
| CNC(=O)/C(O)=C/c1cc(CCc2ccccc2)ncn1 | 24 µM |
| O=C(/C(O)=C/c1cc(CCc2ccccc2)ncn1)N1CCOCC1 | > 59 µM |
| CN1CC(c2cc(CCc3ccc(F)cc3)ncn2)=C(O)C1=O | 0.8 µM |
| CN1CC(c2cc(OCc3ccc(F)cc3)ncn2)=C(O)C1=O | 0.32 µM |
| O=C1C(O)=C(c2cc(OCc3ccc(F)cc3)ncn2)CN1CCO | 0.38 µM |
| COCCN1CC(c2cc(OCc3ccc(F)cc3)ncn2)=C(O)C1=O | 0.47 µM |
| COc1ccc(CN2CC(c3cc(OCc4ccc(F)cc4)ncn3)=C(O)C2=O)cc1 | 3.3 µM |
| O=C1NCC(C(=O)c2ccc(Cc3ccc(F)cc3)o2)=C1O | 0.93 µM |
| COCCN1CC(C(=O)c2ccc(Cc3ccc(F)cc3)o2)=C(O)C1=O | 0.67 µM |
| O=C(O)/C(O)=C/c1cc(CCc2ccccc2)ncn1 | 34 µM |
| O=C(O)/C(O)=C/c1ccc(Oc2ccc(F)cc2)cn1 | > 73 µM |
| O=C(C1=C(O)C(=O)N(C2CCCC2)C1)c1ccc(Cc2ccc(F)cc2)o1 | 1.5 µM |
| CN1CC(c2ccc(OCc3ccc(F)cc3)cn2)=C(O)C1=O | 0.18 µM |
| CCCN1CC(c2cc(OCc3ccc(F)cc3)ncn2)=C(O)C1=O | 9 µM |

More lines, in order of falling EC50, values ahead:

| EC50 | SMILES |
| --- | --- |
| 49 µM | NC(=O)/C(O)=C/c1cc(CCc2ccccc2)ncn1 |
| 45.7 µM | O=C(O)/C(O)=C/c1ccc(OCc2ccc(F)cc2)cn1 |
| 27 µM | O=C(O)/C(O)=C/c1cc(CCc2ccc(F)cc2)ccn1 |
| 13 µM | COc1ccc(N2CC(C(=O)c3ccc(Cc4ccc(F)cc4)o3)=C(O)C2=O)cc1 |
| 8.8 µM | O=C(O)/C(O)=C/c1ccc(Cc2ccc(F)cc2)cn1 |
| 7.9 µM | O=C(O)/C(O)=C/c1cc(OCc2ccc(F)cc2)ccn1 |
| 7.4 µM | O=C(C1=C(O)C(=O)N(Cc2ccccc2)C1)c1ccc(Cc2ccc(F)cc2)o1 |
| 5.5 µM | O=C(C1=C(O)C(=O)N(CCO)C1)c1ccc(Cc2ccc(F)cc2)o1 |
| 3.4 µM | O=C(C1=C(O)C(=O)N(CCN2CCOCC2)C1)c1ccc(Cc2ccc(F)cc2)o1 |
| 1.9 µM | CN1CC(c2ccc(Oc3ccc(F)cc3)cn2)=C(O)C1=O |
| 1.4 µM | CC(C)N1CC(c2cc(OCc3ccc(F)cc3)ncn2)=C(O)C1=O |
| 0.63 µM | CN1CC(C(=O)c2ccc(Cc3ccc(F)cc3)o2)=C(O)C1=O |
| 0.55 µM | CC(C)N1CC(C(=O)c2ccc(Cc3ccc(F)cc3)o2)=C(O)C1=O |
| 0.24 µM | O=C1NCC(c2cc(OCc3ccc(F)cc3)ncn2)=C1O |
| 0.2 µM | O=C(/C=C(\O)c1nc[nH]n1)c1ccc(Cc2ccc(F)cc2)o1 [S-1360] |
| 0.17 µM | CN1CC(c2ccc(Cc3ccc(F)cc3)cn2)=C(O)C1=O |

biological target: not listed separately; experiment: Inhibition of HIV integrase by MWPA-Mg enzymatic assay; set-up: species or system Human immunodeficiency virus; conditions: not given

| SMILES | IC50 |
| --- | --- |
| CNC(=O)/C(O)=C/c1cc(CCc2ccccc2)ncn1 | 11 µM |
| O=C(/C(O)=C/c1cc(CCc2ccccc2)ncn1)N1CCOCC1 | 236 µM |
| CN1CC(c2cc(CCc3ccc(F)cc3)ncn2)=C(O)C1=O | 0.32 µM |
| CN1CC(c2cc(OCc3ccc(F)cc3)ncn2)=C(O)C1=O | 0.063 µM |
| O=C1C(O)=C(c2cc(OCc3ccc(F)cc3)ncn2)CN1CCO | 0.046 µM |
| COCCN1CC(c2cc(OCc3ccc(F)cc3)ncn2)=C(O)C1=O | 0.053 µM |
| COc1ccc(CN2CC(c3cc(OCc4ccc(F)cc4)ncn3)=C(O)C2=O)cc1 | 0.14 µM |
| O=C1NCC(C(=O)c2ccc(Cc3ccc(F)cc3)o2)=C1O | 0.1 µM |
| COCCN1CC(C(=O)c2ccc(Cc3ccc(F)cc3)o2)=C(O)C1=O | 0.16 µM |
| O=C(O)/C(O)=C/c1cc(CCc2ccccc2)ncn1 | 9.6 µM |
| O=C(O)/C(O)=C/c1ccc(Oc2ccc(F)cc2)cn1 | 8.7 µM |
| O=C(C1=C(O)C(=O)N(C2CCCC2)C1)c1ccc(Cc2ccc(F)cc2)o1 | 0.13 µM |
| CN1CC(c2ccc(OCc3ccc(F)cc3)cn2)=C(O)C1=O | 0.03 µM |
| CCCN1CC(c2cc(OCc3ccc(F)cc3)ncn2)=C(O)C1=O | 0.27 µM |

Now from value to compound:

| IC50 | SMILES |
| --- | --- |
| 6.7 µM | NC(=O)/C(O)=C/c1cc(CCc2ccccc2)ncn1 |
| 0.48 µM | O=C(O)/C(O)=C/c1ccc(OCc2ccc(F)cc2)cn1 |
| 1.8 µM | O=C(O)/C(O)=C/c1cc(CCc2ccc(F)cc2)ccn1 |
| 0.17 µM | COc1ccc(N2CC(C(=O)c3ccc(Cc4ccc(F)cc4)o3)=C(O)C2=O)cc1 |
| 1.4 µM | O=C(O)/C(O)=C/c1ccc(Cc2ccc(F)cc2)cn1 |
| 0.093 µM | O=C(O)/C(O)=C/c1cc(OCc2ccc(F)cc2)ccn1 |
| 0.18 µM | O=C(C1=C(O)C(=O)N(Cc2ccccc2)C1)c1ccc(Cc2ccc(F)cc2)o1 |
| 0.075 µM | O=C(C1=C(O)C(=O)N(CCO)C1)c1ccc(Cc2ccc(F)cc2)o1 |
| 0.18 µM | O=C(C1=C(O)C(=O)N(CCN2CCOCC2)C1)c1ccc(Cc2ccc(F)cc2)o1 |
| 0.08 µM | CN1CC(c2ccc(Oc3ccc(F)cc3)cn2)=C(O)C1=O |
| 0.082 µM | CC(C)N1CC(c2cc(OCc3ccc(F)cc3)ncn2)=C(O)C1=O |
| 0.082 µM | CN1CC(C(=O)c2ccc(Cc3ccc(F)cc3)o2)=C(O)C1=O |
| 0.079 µM | CC(C)N1CC(C(=O)c2ccc(Cc3ccc(F)cc3)o2)=C(O)C1=O |
| 0.04 µM | O=C1NCC(c2cc(OCc3ccc(F)cc3)ncn2)=C1O |
| 0.037 µM | CN1CC(c2ccc(Cc3ccc(F)cc3)cn2)=C(O)C1=O |
